Source: patent publication US3996263A, “9-Oxo-11α-methyl-15.EPSILON.-hyroxyprost-13(trans)-enoic acid derivatives and process for the preparaion thereof” (priority 1975, dated 1976)
Blank lines part the entries; values can stand above or below the compound they belong to.

How the values were obtained:
[1] = test system: stress-induced ulceration in rats; test: Inhibition of the stress-induced ulceration by prostaglandins, rats; format: in vivo, Donryu strain male rats; details: for Inhibitory ratio (%): stress 8 hr at 23° C; for anti-stress ulcer potency relative to Compound C / anti-stress ulcer activity compared with PGE1 / anti-stress ulcer activity compared with PGE2: oral; for anti-stress ulcer potency relative to Compound C: versus Compound C; for anti-stress ulcer activity compared with PGE1: versus PGE1; for anti-stress ulcer activity compared with PGE2: versus PGE2
Description: The method employed for the production and evaluation of stress ulcer was essentially same as described by Takagi and Okabe in Journal of Pharmacology vol. 18, pages 9-18 (Japan). Donryu strain male rats, 200 - 230 g in weight, were used. Animals were placed in the stress cage and immersed in a water bath kept at 23° C for 8 hr to the height of the xiphoid of the animal. At the end of the stress, the animals were killed by a blow, and stomach was removed, inflated with 10 ml of 1% formalin solution and placed into 1% formalin solution. Thereafter the stomach was cut along the greater curvature and examined for lesions macroscopically. The ulcer index was calculated as the sum of the length of each lesion in the stomach. Inhibitory ratio of ulceration was calculated for each dose. The test drugs were dissolved into 0.4% Tween 80 solution with aid of an ultrasonicator and administered orally (0.2 ml/100 g) immediately before the stress.

[2] = test system: indomethacin-induced gastric ulceration in rats; test: Inhibition of indomethacin-induced gastric ulceration by prostaglandins, rats; format: in vivo, Sprague-Dawley strain male rats; details: for Inhibitory ratio (%): 5 hours; for ED50: Rattus norvegicus, po, 5 h, p.o., indomethacin 30 mg/kg i.p., read-out: ED50 (50% inhibition of the ulcer formation)
Description: The method employed for the production and evaluation of indomethacin-induced ulcers was essentially same as described by Lee, Mollison and Cheng in Archives Internationales de Pharmacodynamie et de Therapie, vol. 191, page 370 - 377 and by Lippmann in Prostaglandins, vol. 7, page 1 - 10. Sprague-Dawley strain male rats weighing 200 - 220 g were fasted 20 hours with free access to water until the start of experiment. Indomethacin was suspended in 0.4% Tween 80 (surface active agent, product of Atlas Powder Co. U.S.A.) solution and given intraperitoneally into the rats at a dose of 30 mg/kg body weight. The test drugs were dissolved in physiological saline with aid of an ultrasonicator and administered perorally immidiately after the administration of indomethacin. The animals were killed 5 hours later and the ulcer formation in the glandular portion of the stomach was determined.

[3] = cited from earlier work
gastric secretion = details: German Patent Offenlegungsschrift 2,313,868; cited from earlier work
diarrheal activity = format: in vivo; details: in words
intestinal tube = details: stated for prior prostaglandins; cited from earlier work
[4] = stated for prior prostaglandins; cited from earlier work
vasodepressor activity = format: in vivo; details: in words

SMILES: CCCCC[C@H](O)/C=C/[C@H]1[C@H](C)CC(=O)[C@@H]1CCCCCCC(=O)O (relative stereo) [Compound C, 9-Oxo-11α-methyl-15α-hydroxyprost-13(trans)-enoic acid]
- Inhibitory ratio (%) ([1]; 5.0 mg/kg p.o.): 9%
- Inhibitory ratio (%) ([1]; 10 mg/kg p.o.): 40%
- Inhibitory ratio (%) ([2]; 1.25 mg/kg p.o.): 52%
- Inhibitory ratio (%) ([2]; 2.5 mg/kg p.o.): 68%
- ED50 [2]: 1.18 mg/kg

SMILES: CCCCC[C@H](O)/C=C/[C@H]1[C@@H](C)CC(=O)[C@@H]1CCCCCCC(=O)O (relative stereo) [Compound D, 9-Oxo-11β-methyl-15α-hydroxyprost-13(trans)-enoic acid, reference compound]
- Inhibitory ratio (%) ([2]; 1.25 mg/kg p.o.): 43%
- Inhibitory ratio (%) ([2]; 2.5 mg/kg p.o.): 61%
- ED50 [2]: 1.64 mg/kg

SMILES: CCCCC(C)(C)[C@H](O)/C=C/[C@H]1[C@H](C)CC(=O)[C@@H]1CCCCCCC(=O)OC (relative stereo) [Compound B, Methyl 9-oxo-11α,16,16-trimethyl-15α-hydroxyprost-13(trans)-enoate]
- Inhibitory ratio (%) ([1]; 0.3 mg/kg p.o.): 11%
- Inhibitory ratio (%) ([1]; 1.0 mg/kg p.o.): 92%
- anti-stress ulcer potency relative to Compound C [1]: more than 10 times
- anti-stress ulcer activity compared with PGE1 [1]: significantly more potent than that of PGE1
- anti-stress ulcer activity compared with PGE2 [1]: equally potent as or slightly more potent than that of PGE2
- Inhibitory ratio (%) ([2]; 0.25 mg/kg p.o.): 49%
- Inhibitory ratio (%) ([2]; 0.50 mg/kg p.o.): 67%
- ED50 [2]: 0.26 mg/kg

SMILES: CCCCCC(O)/C=C/C1C(C)CC(=O)C1CCCCCCC(=O)O (stereo not drawn) [9-oxo-11β-methyl-15α(or β)-hydroxyprost-13(trans)-enoic acid]
- anti-ulcerogenic activity compared with prostaglandins E1 and E2 ([3]; versus prostaglandins E1 and E2): extremely lower than that of prostaglandins E1 and E2
- inhibition of gastric secretion (gastric secretion): inhibit gastric secretion

- vasodepressor activity (vasodepressor activity): vasode-pressor activity
SMILES: CCCCC[C@H](O)/C=C/[C@H]1[C@H](O)CC(=O)[C@@H]1C/C=C\CCCC(=O)O [PGE2, reference compound]
- Inhibitory ratio (%) ([1]; 0.3 mg/kg p.o.): 17%
- Inhibitory ratio (%) ([1]; 1.0 mg/kg p.o.): 60%
- anti-ulcerogenic effects ([3]; U.S. Pat. No. 3,781,429, Prostaglandins 1974, 6, 523-532): anti-ulcerogenic effects
- diarrhea (side effect) (diarrheal activity): exhibits various side effects including diarrhea
- Inhibitory ratio (%) ([2]; 0.05 mg/kg p.o.): 57%
- Inhibitory ratio (%) ([2]; 0.25 mg/kg p.o.): 79%
- potency relative to compound A in inhibition of the indomethacin-induced ulcer formation ([2]; PGE2 versus compound A): approximately 5 times
- ED50 [2]: 0.03 mg/kg
- intestinal tube-contracting activity (intestinal tube): potent hypotensive and intestinal tube-contracting activities
- hypotensive activity [4]: potent hypotensive

SMILES: CCCCC[C@H](O)/C=C/[C@H]1[C@H](O)CC(=O)[C@@H]1CCCCCCC(=O)O [PGE1]
- intestinal tube-contracting activity (intestinal tube): potent hypotensive and intestinal tube-contracting activities

SMILES: CCCCC(C)(C)[C@H](O)/C=C/[C@H]1[C@H](C)CC(=O)[C@@H]1CCCCCCC(=O)O (relative stereo) [Compound A, 9-Oxo-11α,16,16-trimethyl-15α-hydroxyprost-13(trans)-enoic acid]
- Inhibitory ratio (%) ([1]; 0.3 mg/kg p.o.): 12%
- Inhibitory ratio (%) ([1]; 1.0 mg/kg p.o.): 73%
- anti-stress ulcer potency relative to Compound C [1]: more than 10 times
- anti-stress ulcer activity compared with PGE1 [1]: significantly more potent than that of PGE1
- anti-stress ulcer activity compared with PGE2 [1]: equally potent as or slightly more potent than that of PGE2
- Inhibitory ratio (%) ([2]; 0.25 mg/kg p.o.): 63%
- Inhibitory ratio (%) ([2]; 0.50 mg/kg p.o.): 71%
- ED50 [2]: 0.16 mg/kg
